{"source": "paper PMC5693942", "about": "(Scientific Reports, 2017)", "key": {"[1]": {"experiment": "Activated sludge simulating microcosms (degradation of FL, formation of NFL)", "assay_type": "physicochemical", "procedure": "Activated sludge microcosm experiments were conducted in the dark and aerobic conditions. Three microcosm bioreactors were investigated in duplicate. They were filled with 2 L of fresh activated sludge collected from a local wastewater treatment plant. […] Dark conditions were simulated by covering up the flask with foil. Aerobic conditions were obtained using air from BOC air cylinder and a thorough mixing was maintained using magnetic stirrers. The experiment was 24 hours long. […] Collected samples were subsequently frozen until their analysis to prevent degradation of compounds.\nThe compounds studied are characterized as having low volatility and therefore volatilization was not considered as a potential removal pathway in studied microcosms. Photodegradation was also not considered (not relevant) under tested activated sludge conditions. Therefore the two important degradation mechanisms to consider were biodegradation and sorption to sludge. […] However, in this study, sorption equilibrium was assumed and therefore sorption could be considered negligible. This is because sorption is assumed to be fast when compared to biological degradation.\nSeveral reports utilized pseudo-first-order kinetics for degradation of micropollutants in activated sludge reactors[48]–[50]. […] Pseudo-first order biodegradation rate k1 [L g^−1h^−1]"}, "[2]": {"details": "ref [3], cited from earlier work"}, "[3]": {"experiment": "River water simulating microcosms (degradation of FL)"}, "[4]": {"details": "10 µg L^−1 microcosm, first 30 minutes"}}}
{"smiles": "CNCCC(Oc1ccc(C(F)(F)F)cc1)c1ccccc1", "note": "(stereo not drawn) [FL, Fluoxetine, reference compound]", "values": [{"measurement": "EF", "setting": "[1]; 10 µg L-1 microcosm, time 0", "value": 0.484}, {"measurement": "EF", "setting": "[1]; 10 µg L-1 microcosm, time 0.5", "value": 0.504}, {"measurement": "EF", "setting": "[1]; 10 µg L-1 microcosm, time 1", "value": 0.347}, {"measurement": "EF", "setting": "[1]; 10 µg L-1 microcosm, time 1.5", "value": 0.499}, {"measurement": "EF", "setting": "[1]; 10 µg L-1 microcosm, time 2", "value": 0.480}, {"measurement": "EF", "setting": "[1]; 10 µg L-1 microcosm, time 3", "value": 0.499}, {"measurement": "EF", "setting": "[1]; 10 µg L-1 microcosm, time 5", "value": 0.429}, {"measurement": "EF", "setting": "[1]; 10 µg L-1 microcosm, time 8", "value": 0.461}, {"measurement": "EF", "setting": "[1]; 10 µg L-1 microcosm, time 12", "value": 0.263}, {"measurement": "EF", "setting": "[1]; 10 µg L-1 microcosm, time 24", "value": 0.260}, {"measurement": "lag phase", "setting": "[1]; 10 µg L^−1 FL bioreactor", "value": 3, "unit": "h"}, {"measurement": "degradation (rapid removal from aqueous phase)", "setting": "[1]; [4]", "value": 50, "unit": "%"}, {"measurement": "enantiomeric fraction (EF)", "setting": "[1]; [4]", "value": 0.5}, {"measurement": "enantiomeric fraction (EF)", "setting": "[1]; 10 µg L^−1 reactor, after further slow removal", "value": "< 0.3"}, {"measurement": "EF", "setting": "[1]; 100 µg L-1 microcosm, time 0", "value": 0.531}, {"measurement": "EF", "setting": "[1]; 100 µg L-1 microcosm, time 0.5", "value": 0.519}, {"measurement": "EF", "setting": "[1]; 100 µg L-1 microcosm, time 1", "value": 0.515}, {"measurement": "EF", "setting": "[1]; 100 µg L-1 microcosm, time 1.5", "value": 0.516}, {"measurement": "EF", "setting": "[1]; 100 µg L-1 microcosm, time 2", "value": 0.511}, {"measurement": "EF", "setting": "[1]; 100 µg L-1 microcosm, time 3", "value": 0.477}, {"measurement": "EF", "setting": "[1]; 100 µg L-1 microcosm, time 5", "value": 0.431}, {"measurement": "EF", "setting": "[1]; 100 µg L-1 microcosm, time 8", "value": 0.410}, {"measurement": "EF", "setting": "[1]; 100 µg L-1 microcosm, time 12", "value": 0.326}, {"measurement": "EF", "setting": "[1]; 100 µg L-1 microcosm, time 24", "value": 0.257}, {"measurement": "lag phase", "setting": "[1]; 100 µg L^−1 FL bioreactor", "value": 2, "unit": "h"}, {"measurement": "enantiomeric fraction (EF)", "setting": "[1]; 100 µg L^−1 microcosm", "value": "< 0.3"}, {"measurement": "transformation / removal", "setting": "[1]; 100 µg L^−1 microcosm, 24 h", "value": 60, "unit": "%"}, {"measurement": "excreted in the urine as this species", "setting": "[2]; after FL", "value": 11.6, "unit": "%"}, {"measurement": "excreted in the feces", "setting": "[2]", "value": "approximately 15%"}, {"measurement": "excreted in the urine", "setting": "[2]", "value": 80, "unit": "%"}, {"measurement": "EF", "setting": "[3]; DAR (dark abiotic), day 1", "value": 0.499}, {"measurement": "EF", "setting": "[3]; DAR (dark abiotic), day 2", "value": 0.502}, {"measurement": "EF", "setting": "[3]; DAR (dark abiotic), day 3", "value": 0.504}, {"measurement": "EF", "setting": "[3]; DAR (dark abiotic), day 4", "value": 0.507}, {"measurement": "EF", "setting": "[3]; DAR (dark abiotic), day 9", "value": 0.497}, {"measurement": "EF", "setting": "[3]; DAR (dark abiotic), day 10", "value": 0.505}, {"measurement": "EF", "setting": "[3]; DAR (dark abiotic), day 11", "value": 0.526}, {"measurement": "EF", "setting": "[3]; DAR (dark abiotic), day 15", "value": 0.497}, {"measurement": "EF", "setting": "[3]; DBR (dark biotic), day 1", "value": 0.506}, {"measurement": "EF", "setting": "[3]; DBR (dark biotic), day 2", "value": 0.468}, {"measurement": "EF", "setting": "[3]; DBR (dark biotic), day 3", "value": 0.496}, {"measurement": "EF", "setting": "[3]; DBR (dark biotic), day 4", "value": 0.503}, {"measurement": "EF", "setting": "[3]; DBR (dark biotic), day 5", "value": 0.495}, {"measurement": "EF", "setting": "[3]; DBR (dark biotic), day 8", "value": 0.441}, {"measurement": "EF", "setting": "[3]; DBR (dark biotic), day 9", "value": 0.499}, {"measurement": "EF", "setting": "[3]; DBR (dark biotic), day 10", "value": 0.507}, {"measurement": "EF", "setting": "[3]; DBR (dark biotic), day 11", "value": 0.495}, {"measurement": "EF", "setting": "[3]; DBR (dark biotic), day 12", "value": 0.490}, {"measurement": "EF", "setting": "[3]; DBR (dark biotic), day 15", "value": 0.538}, {"measurement": "EF", "setting": "[3]; DBR (dark biotic), day 16", "value": 0.554}, {"measurement": "EF", "setting": "[3]; LAR (light abiotic), day 1", "value": 0.497}, {"measurement": "EF", "setting": "[3]; LAR (light abiotic), day 2", "value": 0.488}, {"measurement": "EF", "setting": "[3]; LAR (light abiotic), day 3", "value": 0.491}, {"measurement": "EF", "setting": "[3]; LAR (light abiotic), day 4", "value": 0.498}, {"measurement": "EF", "setting": "[3]; LAR (light abiotic), day 5", "value": 0.511}, {"measurement": "EF", "setting": "[3]; LAR (light abiotic), day 8", "value": 0.508}, {"measurement": "EF", "setting": "[3]; LAR (light abiotic), day 9", "value": 0.513}, {"measurement": "EF", "setting": "[3]; LAR (light abiotic), day 10", "value": 0.511}, {"measurement": "EF", "setting": "[3]; LAR (light abiotic), day 11", "value": 0.512}, {"measurement": "EF", "setting": "[3]; LAR (light abiotic), day 12", "value": 0.487}, {"measurement": "EF", "setting": "[3]; LAR (light abiotic), day 15", "value": 0.531}, {"measurement": "EF", "setting": "[3]; LAR (light abiotic), day 16", "value": 0.535}, {"measurement": "EF", "setting": "[3]; LBR (light biotic), day 1", "value": 0.493}, {"measurement": "EF", "setting": "[3]; LBR (light biotic), day 2", "value": 0.493}, {"measurement": "EF", "setting": "[3]; LBR (light biotic), day 3", "value": 0.498}, {"measurement": "EF", "setting": "[3]; LBR (light biotic), day 4", "value": 0.502}, {"measurement": "EF", "setting": "[3]; LBR (light biotic), day 5", "value": 0.508}, {"measurement": "EF", "setting": "[3]; LBR (light biotic), day 8", "value": 0.537}, {"measurement": "EF", "setting": "[3]; LBR (light biotic), day 9", "value": 0.512}, {"measurement": "EF", "setting": "[3]; LBR (light biotic), day 10", "value": 0.497}, {"measurement": "EF", "setting": "[3]; LBR (light biotic), day 11", "value": 0.498}, {"measurement": "EF", "setting": "[3]; LBR (light biotic), day 12", "value": 0.491}, {"measurement": "EF", "setting": "[3]; LBR (light biotic), day 15", "value": 0.525}, {"measurement": "EF", "setting": "[3]; LBR (light biotic), day 16", "value": 0.467}, {"measurement": "removal of FL", "setting": "[3]; river water, dark abiotic conditions (DAR)", "value": "did not lead to any significant removal"}]}
